Reference: patent US10125183B2, “Decoy peptides inhibiting binding of AMIGO2 and 3-phosphoinositide-dependent kinase 1” (Curacle Co., Ltd., priority 2015, dated 2018)

Key:
[1] = target: T1, interaction of the CD of AMIGO2 and PH domain of PDK1 (Homo sapiens, UniProt O15530); assay: Peptide competition assay (GST-AMIGO2 CD versus peptide on His-tagged PDK1 PH); type: binding; settings: His-tagged PDK1 PH with GST-AMIGO2 CD and peptide, dose dependent
T1 construct: the purified His tagged PH domain proteins were incubated with Ni^2+-NTA resins; made in house; host or cells: Escherichia coli BL21
T1 sequence (O15530 459-550 limits assumed): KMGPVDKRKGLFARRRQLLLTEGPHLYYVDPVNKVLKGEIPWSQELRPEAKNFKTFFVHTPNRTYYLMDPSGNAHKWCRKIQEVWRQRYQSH
Method: (§1) For the peptide binding assay, the purified His-tagged PH domain proteins were incubated with Ni^2+-NTA resins for 1 h, incubated in vitro with the FITC-PTD-A2 or Con-pep for 1 h, washed five times, eluted with elution buffer. The FITC level of eluted material was then measured using FLUOstar Omega (BGMLABTECH). For the peptide competition assay, the purified His tagged PH domain proteins were incubated with Ni^2+-NTA resins for 1 h, incubated in vitro with the Cytoplasm Domain protein of AMIGO2 proteins with FITC-PTD-A2 or Con-pep for 1 h, washed five times, eluted with elution buffer, and the fluorescence was measured. The FITC level of eluted material was then measured using FLUOstar Omega.

Akt and PDK1 = assay: VEGF-induced Akt signaling in HUVECs; type: cell-based, human; settings: PTD-A2-treated HUVECs
Method: (§2) The PTD-A2 of FITC-linker-YGRKKRRQRRR-GKRVVFLEPLKDTA (SEQ ID NO: 37) (decoy peptide) and the control peptide (FITC-linker-YGRKKRRQRRR-GRVKTDFLAVPEKL (SEQ ID NO: 38)) (Con-pep) were obtained from Peptron. The experiment was performed using 5 μM concentration in vitro, 4 mg/kg was used for an animal experiment. Peptide treated HUVECs were incubated with serum-free M199 medium at 37° C.

HUVECs [2] = assay: HUVEC cell viability with or without VEGF; type: cell-based, human; settings: serum-free starvation with or without VEGF
Method: Endothelial progenitor cells (EPC) were isolated from human umbilical cord blood as previously described (Maeng et al., 2009). Briefly, human umbilical cord blood samples (approximately 50 mL each) were collected from fresh placentas with attached umbilical cords by gravity flow. Human umbilical vein endothelial cells (HUVECs) were isolated from human umbilical cord veins using collagenase as described previously (Marin et al., 2001), and cells from passages three to six were used. HUVECs were cultured on 2% gelatin-coated dishes at 37° C. in a 5% CO2-humidified atmosphere using M199 medium (HyClone) containing 20% fetal bovine serum (FBS), 100 U/mL penicillin, 100 μg/mL streptomycin, 3 ng/mL bFGF (Upstate Biotechnology), and 5 U/mL heparin.
as §2

B16F10 melanoma tumors = assay: B16F10 melanoma tumor model; type: in vivo, mouse; settings: 4 mg/kg every other day
Method: B16F10 melanoma cells (2.5×10^5 cells in 100 μl) were subcutaneously injected into the dorsal flank of 6-7 week-old mice and then PTD-Con or PTD-A2 peptide (4 mg/kg every other day) was administered by intratumoral injection after the tumor volume exceeded 100 mm^3. The size was evaluated every day, tumor samples were frozen sectioned, and stained with anti-CD31 antibody to detect the tumor vascular changes, and then examined the apoptosis bio TUNEL staining. For the TUNEL assay, an in situ cell death detection kit (Roche) was used, and sections were analyzed using a confocal microscope (LSM 700 META; Carl Zeiss).

PDK1 = PDK1 localization in HUVECs after VEGF treatment (immunofluorescence); type: cell-based, human; settings: PTD-A2-treated HUVECs
Method: HUVECs were fixed in 3.7% formaldehyde for 10 min and permeabilized with 0.1% Triton X-100 on the ice. Cells were labeled with anti-FAK antibody (Santa Cruz Biotechnology), anti-PDK1 antibody (Cell Signaling Technology), anti-Akt antibody (Cell Signaling Technology), and anti-AMIGO2 antibody (Abcam) for 2 h at room temperature or overnight at 4° C. Afterwards, the cells were incubated with Alexa 488 and Alexa 546 secondary antibodies (Invitrogen) for 60 min at room temperature, and were then examined under a confocal microscope (LSM 700 META; Carl Zeiss).
as §2

C57BL/6J mice = assay: Mouse model of oxygen-induced retinopathy (OIR); type: in vivo; settings: injected every day for five days from P12
Method: OIR was induced in C57BL/6J mice as previously described (Connor et al., 2009). Briefly, litters of postnatal day seven (P7) C57BL/6J pups were placed in a 75% oxygen atmosphere for five days and then returned to room air at age P12. After returning to room air, the pups were injected with PBS, Con-pep and PTD-A2 every day for five days. Following the injections, crumps of non-vascular regions, vascular regions and blood vessels were detected with CD31 staining.

HUVECs [3] = assay: Matrigel-induced tube formation assay; type: cell-based, human; settings: PTD-A2 treated ECs
Method: The tube formation was assayed as previously described (Choi et al., 2009). Briefly, 250 μL of Matrigel™ (BD Biosciences) was added to a 16-mm diameter tissue culture well on the ice. HUVEC cells then ware placed on that and tube formation was confirmed. The images of the tubes were quantified using ImageJ software (National Institutes of Health).

[4] = target: T2, association between AMIGO2 and PDK1 (Homo sapiens, UniProt O15530); assay: Immunoprecipitation of AMIGO2 and blotting for PDK1 in peptide-treated HUVECs; type: cell-based
T2 construct: endogenous in cells; host or cells: endothelial cells (HUVECs)
T2 sequence (O15530 1-556): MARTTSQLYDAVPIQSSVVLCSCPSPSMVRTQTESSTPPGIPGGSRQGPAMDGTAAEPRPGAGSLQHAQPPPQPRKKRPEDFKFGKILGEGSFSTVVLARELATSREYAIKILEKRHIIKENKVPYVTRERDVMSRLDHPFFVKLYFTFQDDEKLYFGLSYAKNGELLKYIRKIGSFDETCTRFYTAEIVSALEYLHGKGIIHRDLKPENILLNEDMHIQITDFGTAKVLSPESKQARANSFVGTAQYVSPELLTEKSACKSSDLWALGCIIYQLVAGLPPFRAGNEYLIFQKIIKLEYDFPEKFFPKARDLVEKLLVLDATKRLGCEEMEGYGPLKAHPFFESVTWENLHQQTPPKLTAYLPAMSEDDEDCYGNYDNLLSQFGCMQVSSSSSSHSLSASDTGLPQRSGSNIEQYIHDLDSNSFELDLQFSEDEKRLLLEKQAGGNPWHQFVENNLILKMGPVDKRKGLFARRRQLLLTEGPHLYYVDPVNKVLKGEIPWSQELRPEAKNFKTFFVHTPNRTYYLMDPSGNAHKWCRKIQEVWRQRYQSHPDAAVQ
Method: For co-immunoprecipitation, HEK293T cells were lysed in 1 mL lysis buffer (20 mmol/L Tris/HCl pH 8.0, 2 mmol/L EDTA, 137 mmol/L NaCl, 1 mmol/L NaVO4, 1 mmol/L PMSF, 10% glycerol, and 1% Triton X-100), and were centrifuged at 14,000×g for 15 min at 4° C., and then the supernatants were immunoprecipitated with antibodies against FLAG (Sigma-Aldrich) and GFP (Santa Cruz Biotechnology) at 4° C. overnight. The immunoprecipitated proteins were obtained by using protein A-agarose beads (Upstate Biotechnology), and detected by SDS-PAGE.
as §2

C57BL/6 mice = assay: Matrigel plug angiogenesis assay; type: in vivo, mouse; settings: 25 μM peptide with VEGF 200 ng, subcutaneous, five days
Method: Angiogenesis was evaluated as previously described (Choi et al., 2009). PBS; Matrigel™ (500 μL; BD Biosciences) mixed with PTD-A2 (25 μM), VEGF (200 ng) and heparin (10 U); and Con-pep (25 μM), VEGF (200 ng) and heparin (10 u) were each subcutaneously injected to Five- to six-week-old C57BL/6 mice. Following injection, the Matrigel™ rapidly formed a single, solid gel plug. After five days, the skin of the mouse was pulled back to expose the Matrigel™ plug, which remained intact. To quantify blood vessel formation, hemoglobin was measured using the Drabkin method and the Drabkin reagent kit 525 (Sigma-Aldrich), and immunohistochemistry was performed using anti-CD31 antibody (BD Biosciences) to identify infiltrating ECs.

PDK1 PH domain = target: T3, PDK1 PH domain (Homo sapiens, UniProt O15530); assay: Decoy peptide binding assay (FITC-PTD-A2 with His-tagged PH domain proteins); settings: FITC-PTD-A2, PH domain proteins 0-60 μg, fluorescence
T3 construct: the purified His-tagged PH domain proteins were incubated with Ni^2+-NTA resins; made in house; host or cells: Escherichia coli BL21
T3 sequence (O15530 459-550 limits assumed): T1 sequence (O15530 459-550 limits assumed)
Method: as §1

Question: With “FITC-linker-YGRKKRRQRRR-GKRVVFLEPLKDTA (SEQ ID NO: 37) [PTD-A2]” as the substance, how does the “interaction of the CD of AMIGO2 and PH domain of PDK1” value [1] read?
Answer: inhibited

Question: What about the “activity of both Akt and PDK1” value (Akt and PDK1) of the same substance?
Answer: reduced

Question: And the “cell viability of PTD-A2-treated HUVECs” value (HUVECs [2])?
Answer: dose and time-dependent inhibitory effect

Question: And the “apoptotic regions of tumors (TUNEL assay)” value (B16F10 melanoma tumors; compared to PBS or Con-pep groups)?
Answer: increased

Question: And the tumor formation (B16F10 melanoma tumors; intratumoral injection)?
Answer: decreased

Question: What about the tumor angiogenesis (B16F10 melanoma tumors; intratumoral, CD31 staining) of the same substance?
Answer: decreased

Question: What about the “PDK1 localization to the plasma membrane following VEGF treatment” value (PDK1) of the same substance?
Answer: unable to move to the plasma membrane

Question: And the “avascular areas of retinas” value (C57BL/6J mice)?
Answer: increased

Question: What about the retinal hemorrhage (C57BL/6J mice) of the same substance?
Answer: significantly reduced

Question: And the retinal vascular areas (C57BL/6J mice)?
Answer: significantly reduced

Question: And the tuft formation (C57BL/6J mice)?
Answer: significantly reduced

Question: And the Matrigel-induced tube formation (HUVECs [3])?
Answer: inhibited

Question: What about the “association between AMIGO2 and PDK1 in endothelial cells” value [4] of the same substance?
Answer: inhibited

Question: What about the “hemoglobin contents of Matrigel plugs” value (C57BL/6 mice) of the same substance?
Answer: lower

Question: What about the “neovascularization in Matrigel plugs” value (C57BL/6 mice) of the same substance?
Answer: dramatic inhibition

Question: And the “binding to the PDK1 PH domain” value (PDK1 PH domain)?
Answer: bound
